Measured values as given in patent publication EP0727211A1, “Use of src SH2 specific compounds to treat a bone resorption disease” (SMITHKLINE BEECHAM CORPORATION, priority 1995, dated 1996).
Read-outs that look alike come from different tables or passages of the source.

Key:
human src SH2 domain [1] = biological target: human src SH2 domain (Homo sapiens, UniProt P12931); experiment: SH2 domain / pY peptide binding assay (ELISA-based, 96 well plate), src SH2
Protocol: (§1) The inhibitory activity of compounds at the different human SH2 domains was determined in vitro using SH2 domains expressed as fusion proteins in E. coli. The SH2 domains used herein were the human forms of the src SH2 domain, Grb2 SH2 domain, lck SH2 domain, fyn SH2 domain, SH-PTP2 SH2 domain, p85 SH2 domain and hcp SH2 domain. The fusion proteins containing the src, lck and hcp SH2 domains were expressed as the general sequence: DET1-DET2-spacer-ek-SH2, where DETI, DET2, spacer, ek and SH2 are as described below. […] Monoclonal antibodies to various epitopes of HIV-1 gp120 (or gp160) are known in the art, see, for example U.S. Patent 5,166,050. One preferred example is monoclonal antibody 178.1 (see, […] et al., J. Immunol., 143:1832-1836 (1989)), which was prepared by immunization of mice with a yeast-expressed HIV-1 gp160 molecule from strain BH10 (Ratner et al., Nature, 313:277-284 (1985)). This tag was used for detection of expression (by Western blot), for purification of the protein (by affinity chromatography), and for configuring assays in which the fusion protein was captured or immobilized using the 178.1 antibody. DET2 is a hexahistidine sequence tag (SEQ ID NO: 2) which binds to nickel-containing resins and was used for purification purposes. Spacer (SEQ ID NO: 3) was utilized to design a BamH1 restriction site at the indicated position of the construct. The term -[…] to a recognition sequence (SEQ ID NO: 4) for the enterokinase protease which provides for the optional removal of the tags from the SH2 domain, thus producing an SH2 domain that contains no extraneous amino acids. SH2 domains which contain no extraneous amino acids are preferable to tagged protein for crystallography studies. SH2 refers to the SH2 domains of different proteins. Cloning, expression and purification of human src SH2 domain containing tags and an enterokinase proteolytic cleavage site (DET1-DET2-spacer-ek-src SH2). A DNA sequence encoding protein ek-src SH2 was PCR amplified from a cDNA clone containing the human src gene (c-src SH2 DNA sequence identical to that described in […]. and Hanafusa, H, 1983 Cell 32:881-890) using the following primers: [formula] The PCR product was digested with BamHI and XbaI, followed by isolation of the digested fragment on an agarose gel. […] In that vector, the BamHI site is located between the coding regions for DET2 and SH2, and the XbaI site is located after the 3' end of the SH2 coding region. The ligation reaction was used to transform E. coli M[…]^+. […] Cells were lysed at neutral pH by sonication in the […] of lysozyme. […] After washing the column with equilibration buffer (Tris buffer pH 8 containing 0.5 M NaCl) and the same buffer containing 15 mM imidazole, the protein was eluted in highly purified form with 25 mM imidazole in equilibration buffer. […] The binding assays for the SH2 domains and pY peptides were performed in an ELISA-based 96 well plate assay. In Millipore 96 well filter plates, hydrophilic Durapore® (pore size 0.65um Cat. No. MADVN6550), was added 2 ul (50% suspension) of Protein-G Sepharose (available from Pharmacia of N.J. Cat. […] The volume was brought to 100 ul with TBS-T (tris buffered saline plus 0.05% tween-20), incubated and shaken at room trmperature for 1 hr. then washed 1x with TBS-T (4°C). 90 ul of TBS-T were then added to each well. […] The assay plates were incubated until equilibrium binding was attained (3 hr at 4°C with shaking). […] The A490 of each ELISA plate was then determined. […]

[2] = test system: osteoclast mediated bone resorption; experiment: fetal rat long bone (FRLB) assay, 45calcium release; assay type: cell-based, Sprague Dawley rats; conditions: inhibition of 45calcium release from fetal rat radii and ulnae, 48 hours culture with compound, n=4
Protocol: 4-[4-(4-Methylbenzoyl)benzoyl]phenylacetaldehyde (Compound 4) was tested for its potency to inhibit osteoclast mediated bone resorption in the fetal rat long bone (FRLB) assay as described in Raisz LG (1965) J Clin Invest 44: 103-116, Stern PH et al., (1979) Skeletal Research: An experimental Approach. New York:Academic Press, 21-59 and Votta BJ et al., (1994) Bone 15:533-538).
To perform the experiment timed-pregnant Sprague Dawley rats (Taconic Farms, Germantown, NY) were injected subcutaneously with 200 µCi of ^45CaCl2 on day 18 of gestation, housed overnight, then anesthetized with Innovar-Vet (Pittman-Moore, Mundelein, IL) and sacrificed by cervical dislocation. Fetuses were removed aseptically and radii and ulnae were dissected free of surrounding soft tissue and cartilaginous ends. The bones were cultured 18-24 hours in BGJb medium (Sigma) containing 1 mg/ml bovine serum albumin, then transferred to fresh medium and cultured for an additional 48 hours in the absence or presence of Compound 4. ^45Calcium released into the medium and total calcium in the bones were measured by liquid scintillation spectrometry. Data were expressed as the % ^45calcium released from treated bones as compared to corresponding control bones. Statistical differences were assessed by employing a one-way analysis of variance for non-paired samples. Data are presented as mean ± s.e.m., n=4. […]

human src SH2 domain [3] = experiment: SH2 domain / pY peptide binding assay (ELISA-based, 96 well plate), src SH2; conditions: selectivity for src SH2 versus the other SH2 domains of Tables I and II
Protocol: as §1

human src SH2 domain (Homo sapiens, UniProt P12931), sequence (P12931 151-248): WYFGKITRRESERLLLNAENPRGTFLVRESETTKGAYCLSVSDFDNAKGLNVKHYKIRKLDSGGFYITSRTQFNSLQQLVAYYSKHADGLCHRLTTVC

N[C@@H](Cc1cc(Br)c(Oc2ccc(O)c(Cc3ccc(O)nn3)c2)c(Br)c1)C(=O)O [Compound 2, L-3,5-Dibromo-3'-(6-oxo-3(1H)-pyridazinylmethyl)-thyronine]
IC50 (human src SH2 domain [1]; read-out: Src (IC50); cloned human SH2 domain fusion protein; 0.1 uM biotinylated pY peptide; Table I): > 300 µM
Ki (human src SH2 domain [1]; read-out: Src (Ki); Ki calculated from IC50 by the expanded equation; Table II): > 1000 µM

Cc1ccc(C(=O)c2ccc(C(=O)c3ccc(CC=O)cc3)cc2)cc1 [Compound 4, 4-[4-(4-Methylbenzoyl)benzoyl]phenylacetaldehyde]
IC50 [2]: 19 µM

CCCCCCNC(=O)[C@H]1CC[C@H](CNC(=O)c2ccc([N+](=O)[O-])cc2)CC1 [Compound 7, 4-nitro-benzamido-trans-4-methyl-cyclohexyl-N-hexyl carboxamide]
Ki (human src SH2 domain [1]; Ki calculated from IC50 by the expanded equation; Table II; read-out: Src (Ki)): 20 µM
IC50 (human src SH2 domain [1]; cloned human SH2 domain fusion protein; 0.1 uM biotinylated pY peptide; Table I; read-out: Src (IC50)): 7.4 µM
binding affinity/inhibitory concentration at the src SH2 domain than at other SH2 domains (human src SH2 domain [3]): greater than fifty-fold higher
